Source: patent US11260072B2, “MicroRNA-based methods and assays for osteocarcinoma” (3-D Matrix, Ltd., priority 2011, dated 2022)
d = 2'-deoxy (DNA); r = 2'-OH (RNA)

Columns and labels:
143B-luc = assay: spontaneous lung metastasis model of osteosarcoma (143B-luc implanted orthotopically into tibia); type: in vivo, athymic nude mice
Procedure: (§1) Tumor transplantation experiments. Animal experiments were performed in compliance with the guidelines of the Institute for Laboratory Animal Research, National Cancer Center Research Institute. Athymic nude mice or NOD/SCID mice (CLEA Japan) were purchased at 4 weeks of age and given at least 1 week to adapt to their new environment prior to tumor transplantation. On day 0, mice were anesthetized with 3% isoflurane and the right leg disinfected with 70% ethanol. Cells were aspirated into a 1 mL tuberculin syringe fitted with a 27-G needle. The needle was inserted through the cortex of the anterior tuberosity of the tibia with a rotating movement to avoid cortical fracture. Once the bone was traversed, the needle was inserted further to fracture the posterior cortex of the tibia. A 100 μL volume of solution containing freshly isolated CD133^high and CD133^low HOS-Luc (10^2, 10^3, 10^4, 10^5 cells per site) or 143B-Luc (1.5×10^6) was injected while slowly moving back the needle.
Monitoring tumor growth, lung metastasis, and toxicity with/without LAN-anti-miR-133a. For the assessment of tumorigenicity between CD133^high and CD133^low HOS-Luc cells, NOD/SCID mice were injected with D-luciferin (150 mg/kg, Promega) by intraperitoneal injection. Ten minutes later, photons from firefly luciferase were counted using the IVIS imaging system (Xenogen Corp.) according to the manufacturer's instructions. Each experimental condition included 5 animals per group and monitoring once a week. For the evaluation of LNA-anti-miR-133a administration into spontaneous lung metastasis of osteosarcoma model mice, individual mice were injected with 10 mg/kg of LNA-anti-miR-133a or saline via the tail vain. LNA were injected on following days 4, 11, 18, 25, 32 postinoculation of 143B-Luc cells. Each experimental condition included 10 animals per group. The development of subsequent lung metastasis was monitored once a week in vivo by the bioluminescent imaging described above for 5 weeks. All data were analyzed using LivingImage software (version 2.50, Xenogen). On day 36, the primary tumor and lung in 5 mice of each group were resected at necropsy for their weight, bioluminescent, and histological analyses. The blood examination, weight of whole body as well as heart, liver, and skeletal muscle, and histopathological examination were performed for the assessment of toxicity.
To extend the in vitro findings and to determine whether silencing of miR-133a could be an effective therapeutic option for osteosarcoma treatment, the effect of LNA-133a on a spontaneous lung metastasis model of osteosarcoma was examined. Experimentally, 1.5×10^6 cells of 143B transfected with firefly luciferase gene (143B-luc) were implanted orthotopically into the right proximal tibia of athymic nude mice. The implanted tumor growth and the presence of distant metastases were analyzed weekly for luciferase bioluminescence using an in vivo imaging system (IVIS). […] To assess the efficacy of the new treatment protocol, results were compared with three control groups (n=10 each): a saline control group, an LNA group, and a CDDP group. At 5 weeks, half the mice in each group were euthanized for further analysis; the remaining mice were monitored for survival.

143B cells = assay: qRT-PCR of miRNAs and CD133 mRNA in drug-treated 143B cells; type: cell-based, human; conditions: for CD133 mRNA expression: 143B cells; for expression of miR-1, miR-10b, and miR-133a: 3 days treatment, relative to untreated 143B cells
From the text: (§2) RNA isolation and quantitative real-time RT-PCR of mRNAs and miRNAs. Total RNA was purified from cells and tumor tissues with an RNeasy Mini Kit and RNase-Free DNase Set (QIAGEN). For quantitative polymerase chain reaction (qPCR) of mRNAs, cDNA was synthesized using High-Capacity cDNA Reverse Transcription Kit (Applied Biosystems). For each qPCR reaction, equal amounts of cDNA were mixed with Platinum SYBER Green qPCR SuperMix (Invitrogen) and specific primers (Table 1). Gene expression levels were normalized by beta actin (ACTB) or glyceraldehyde 3-phosphate dehydrogenase (GAPDH). For qPCR of miRNAs, miRNA was converted to cDNA using the TaqMan MicroRNA Reverse Transcription Kit (Applied Biosystems). RNU6B small nuclear RNA was amplified as an internal control. qPCR was performed using each miRNA-specific probe included with the TaqMan MicroRNA Assay on a Real-Time PCR System 7300 and SDS software (Applied Biosystems).
In addition, the expression of miR-133a was enhanced by cisplatin in CD133^low HOS cells. […] CDDP-treated CD133^low HOS cells could form tumors with as few as 100 cells per injection, whereas the untreated CD133^low HOS cells could not (FIG. 23 and Table 9). […] Therefore, we reasoned that silencing of miR-133a before or during chemotherapy would prevent the increase of the expression of miR-133a, which enhanced TIC phenotypes and was induced by chemotherapeutics.

CD133^low HOS cells = assay: miR-133a expression in cisplatin-treated CD133low HOS cells; type: cell-based, human
From the text: as §2

CD133^low HOS-luc cells = assay: tumorigenicity of CDDP-treated CD133low HOS-luc cells in mice; type: in vivo
Procedure: as §1, with “A 100 μL volume of solution containing freshly isolated CD133^high and CD133^low HOS-Luc (10^2, 10^3, 10^4, 10^5 cells per site) or 143B-Luc (1.5×10^6) was injected while slowly moving back the needle.” left out
Monitoring tumor growth, lung metastasis, and toxicity with/without LAN-anti-miR-133a. […] Ten minutes later, photons from firefly luciferase were counted using the IVIS imaging system (Xenogen Corp.) according to the manufacturer's instructions. […] The development of subsequent lung metastasis was monitored once a week in vivo by the bioluminescent imaging described above for 5 weeks. All data were analyzed using LivingImage software (version 2.50, Xenogen). […]

CD133^low SaOS2 cells [1] = assay: siRNA knockdown, cell growth in the presence of cisplatin; type: cell-based, human; conditions: siRNA 100 nM, 72 h after transfection
Procedure: (§3) Transfection with synthetic miRNAs, LNAs, and siRNAs. Synthetic hsa-miRs (Pre-miR-hsa-miR-1, -10b, -133a, and negative control (NC; Applied Biosystems, Table 2) and locked nucleic acids (LNAs) (LNA-1, -10b, -133a, and negative control, Exiqon, Table 3) were transfected into each type of cells at 30 nM each (final concentration) using DharmaFECT 1(GE Healthcare). Synthetic siRNAs (Bonac corporation, Table 4) were transfected into each type of cells at 100 nM each (final concentration) using DharmaFECT 1 (GE Healthcare). After 24 hours of incubation, cells were treated with chemotherapeutic agents for cytotoxicity assay or reseeded into invasion chambers for invasion assay.
(§4) Next, the expression of these molecules was reduced using siRNA-induced gene knockdown system to investigate whether these candidates are functionally important targets of miR-133a in osteosarcoma cells.

miR-10b = assay: knock-down of miR-10b in LNA-transfected CD133high SaOS2 cells; type: cell-based, human
From the text: as §2
(§5) Transfection with synthetic miRNAs, LNAs, and siRNAs. […]

CD133^low SaOS2 cells [2] = assay: siRNA knockdown, invasion assay; type: cell-based, human; conditions: siRNA 100 nM, 72 h after transfection
Procedure: Invasion assay. Invasion assays were performed by using 24-well BD BioCoat Invasion Chambers with Matrigel (Becton-Dickinson). 1×10^5 cells, suspended in 500 μL DMEM or RPMI 1640 medium without FBS, were added to the upper chamber, and DMEM or RPMI 1640 medium with 10% FBS was added to the lower chamber. After incubation for 24 h or 36 h, the cells on the upper surface of the filter were completely removed by wiping them with cotton swabs. The filters were fixed in methanol and stained with 1% toluidine blue in 1% sodium tetraborate (Sysmex). Filters were then mounted onto slides, and cells on lower surfaces were counted. Each assay was performed in triplicate.
as §3, §4

miR-1 = assay: knock-down of miR-1 in LNA-transfected CD133high SaOS2 cells; type: cell-based, human
From the text: as §2, §5

N.N.[Cl][Pt][Cl] [CDDP, cis-diamtninedichloroplatinum (II)]
Luminescence of lung (mean) (143B-luc; IVIS bioluminescence): 2855
tumor growth (143B-luc; compared to the other groups, LNA-133a 10 mg kg-1 i.v., CDDP 2 mg kg-1 i.p.): No significant differences in tumor growth
Lung metastasis (mice with metastasis / mice in group) (143B-luc; day 35): 8/10
Tumor weight (mean) (143B-luc; day 36, LNA-133a 10 mg kg-1 i.v., CDDP i.p.): 3.957 g
CD133 mRNA expression (143B cells): induction
CD133 mRNA expression (143B cells; listed as cisplatin): induced
expression of miR-1, miR-10b, and miR-133a (143B cells): increased level
expression of miR-133a (CD133^low HOS cells): enhanced
Tumor Incidence (CD133^low HOS-luc cells; 100 cells per injection, cells treated with CDDP): 5/5
in vivo tumorigenicity of CD133low HOS population (CD133^low HOS-luc cells; mouse, in vivo): increased in vivo tumorigenicity

MAST4: synthetic siRNA against MAST4 (Bonac corporation), Table 4 (sense GGAGGUACCUUCUUCCAAATT; antisense UAUCAAACUUCCUCUUCUGTT; sugars from the 5' end r19 d2, backbone not given here)
drug resistance after knockdown (CD133^low SaOS2 cells [1]): enhanced drug resistance

LNA-10b: locked nucleic acid antisense to hsa-miR-10b, 5′-ACAAATTCGGTTCTACAGGGT-3′ (Exiqon) (LNA-modified (Exiqon), pattern not given here)
miR-10b expression (miR-10b): knock-down

SGMS2: synthetic siRNA against SGMS2 (Bonac corporation), Table 4 (sense CCACUAGAGUGGUGGAAAATT; antisense UUUUCCACCACUCUAGUGGTT; sugars from the 5' end r19 d2, backbone not given here)
invasiveness after knockdown (CD133^low SaOS2 cells [2]): enhanced invasiveness

ANXA2: synthetic siRNA against ANXA2 (Bonac corporation), Table 4 (sense UGACCAAGAUGCUCGGGAUTT; antisense AUCCCGAGCAUCUUGGUCATT; sugars from the 5' end r19 d2, backbone not given here)
drug resistance after knockdown (CD133^low SaOS2 cells [1]): enhanced drug resistance
invasiveness after knockdown (CD133^low SaOS2 cells [2]): enhanced invasiveness

LNA-1: locked nucleic acid antisense to hsa-miR-1-2, 5′-ACATACTTCTTTACATTCCA-3′ (Exiqon) (LNA-modified (Exiqon), pattern not given here)
miR-1 expression (miR-1): knock-down

DUSP11: synthetic siRNA against DUSP11 (Bonac corporation), Table 4 (sense CCAGAGGAUUUGCCAGAAATT; antisense UGUGUCUCGGAUUAGGAAGTT; sugars from the 5' end r19 d2, backbone not given here)
drug resistance after knockdown (CD133^low SaOS2 cells [1]): enhanced drug resistance
invasiveness after knockdown (CD133^low SaOS2 cells [2]): enhanced invasiveness

SNX30: synthetic siRNA against SNX30 (Bonac corporation), Table 4 (sense CCGAGAAGUUUGUGGUAAATT; antisense UUUACCACAAACUUCUCGGTT; sugars from the 5' end r19 d2, backbone not given here)
invasiveness after knockdown (CD133^low SaOS2 cells [2]): enhanced invasiveness

COc1cccc2c1C(=O)c1c(O)c3c(c(O)c1C2=O)C[C@@](O)(C(=O)CO)C[C@@H]3O[C@H]1C[C@H](N)[C@H](O)[C@H](C)O1 [DOX, doxorubicin]
CD133 mRNA expression (143B cells): induction
expression of miR-1, miR-10b, and miR-133a (143B cells): increased level

ROD1: synthetic siRNA against ROD1 (Bonac corporation), Table 4 (sense GGGAAUGACAGCAAGAAAUTT; antisense AUUUCUUGCUGUCAUUCCCTT; sugars from the 5' end r19 d2, backbone not given here)
drug resistance after knockdown (CD133^low SaOS2 cells [1]): enhanced drug resistance

UBA2: synthetic siRNA against UBA2 (Bonac corporation), Table 4 (sense GGACUGGGCUGAAGUACAATT; antisense UUGUACUUCAGCCCAGUCCTT; sugars from the 5' end r19 d2, backbone not given here)
invasiveness after knockdown (CD133^low SaOS2 cells [2]): enhanced invasiveness
